Measured values as given in PubChem BioAssay (NCI).
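Following 48 hours of exposure in 96-well plates, responses at five concentrations were used to interpolate endpoints linearly. At the GI50, growth is halved. TGI: total growth inhibition.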

Assays:
Experiment in all cases: NCI tumour cell line growth inhibition, 48 h; in the data active = GI50 below about 0.43 µM; inactive = the rest
[1] = system: MALME-3M melanoma
[2] = system: NCI-H226 lung
[3] = system: HOP-62 NSCLC
[4] = system: XF 498 CNS
[5] = system: SNB-78 CNS
[6] = system: HT29 colon
[7] = system: P388/ADR leukemia
[8] = system: COLO 205 colon
[9] = system: HCT-116 colon
[10] = system: LOX IMVI melanoma
[11] = system: HCC-2998 colon
[12] = system: NCI-H23 lung
[13] = system: UACC-62 melanoma
[14] = system: EKVX NSCLC
[15] = system: SN12C renal
[16] = system: SW-620 colon
[17] = system: DMS 114 small cell lung
[18] = system: K-562 leukemia
[19] = system: KM20L2 colon
[20] = system: SNB-19 CNS
[21] = system: MCF7 breast
[22] = system: NCI/ADR-RES ovarian
[23] = system: DMS 273 small cell lung
[24] = system: HL-60(TB) leukemia
[25] = system: NCI-H522 lung
[26] = system: M19-MEL melanoma
[27] = system: SF-268 CNS
[28] = system: OVCAR-8 ovarian
[29] = system: SK-MEL-2 melanoma
[30] = system: P388 leukemia
[31] = system: HOP-92 NSCLC
[32] = system: RXF 393 renal
[33] = system: KM12 colon
[34] = system: SK-MEL-5 melanoma
[35] = system: SF-539 CNS
[36] = system: SK-MEL-28 melanoma
[37] = system: IGROV1 ovarian
[38] = system: SN12K1 renal
[39] = system: CCRF-CEM leukemia
[40] = system: SK-OV-3 ovarian
[41] = system: OVCAR-5 ovarian
[42] = system: NCI-H460 lung
[43] = system: MOLT-4 leukemia
[44] = system: U251 CNS
[45] = system: HCT-15 colon
[46] = system: DLD-1 colon
[47] = system: A549 NSCLC
[48] = system: HOP-18 NSCLC
[49] = system: SNB-75 CNS
[50] = system: RPMI-8226 leukemia
[51] = system: A498 renal
[52] = system: OVCAR-3 ovarian
[53] = system: SF-295 CNS
[54] = system: OVCAR-4 ovarian
[55] = system: UACC-257 melanoma
[56] = system: UO-31 renal

Cc1cc(-c2ccc(N=Nc3ccc4c(S(=O)(=O)O)cc(S(=O)(=O)O)c(N)c4c3O)c(C)c2)ccc1N=Nc1ccc2c(S(=O)(=O)O)cc(S(=O)(=O)O)c(N)c2c1O
> 100 µM: TGI [1] | TGI [2] | TGI [3] | TGI [4] | TGI [5] | TGI [6] | TGI [7] | TGI [8] | TGI [9] | TGI [10] | TGI [11] | TGI [12] | TGI [13] | TGI [14] | TGI [15] | TGI [16] | TGI [17] | TGI [18] | TGI [19] | TGI [20] | TGI [21] | TGI [22] | TGI [23] | TGI [24] | TGI [25] | TGI [26] | TGI [27] | TGI [28] | TGI [29] | TGI [30] | TGI [31] | TGI [32] | TGI [33] | TGI [34] | TGI [35] | TGI [36] | TGI [37] | TGI [38] | TGI [39] | TGI [40] | TGI [41] | TGI [42] | TGI [43] | TGI [44] | TGI [45] | TGI [46] | TGI [47] | TGI [48] | TGI [49] | TGI [50] | TGI [51] | TGI [52] | TGI [53] | TGI [54] | TGI [55] | TGI [56]
inactive: GI50 [48] > 100 µM
